In PubChem BioAssay AID248 (DTP/NCI, 2004):
Values joined by “and” are separate entries in the source; they are usually repeats but may differ in a detail not shown here. Equal values may be shown once. Toxic doses and inconclusive results are not listed.

System: L1210 leukemia ip in BDF1 mice, survival T/C
Test: NCI In Vivo Anticancer Drug Screen. Data for tumor model L1210 Leukemia (intraperitoneal) in B6D2F1 (BDF1) mice
Details: endpoint: mean survival time, higher = longer survival
How it was run: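 Transplanted-tumor mice were given test agent; controls received vehicle only. Survival readings from the two groups were divided (treated over control).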

[1] = dose: 100.0 mg/kg/injection, schedule: Q04DX002 (ip), vehicle: saline with Tween-80
[2] = dose: 200.0 mg/kg/injection, schedule: Q04DX002 (ip), vehicle: saline with Tween-80
[3] = dose: 400.0 mg/kg/injection, schedule: Q04DX002 (ip), vehicle: saline with Tween-80
[4] = dose: 50.0 mg/kg/injection, schedule: Q01DX001 (ip), vehicle: saline
[5] = dose: 100.0 mg/kg/injection, schedule: Q01DX001 (ip), vehicle: saline
[6] = dose: 200.0 mg/kg/injection, schedule: Q01DX001 (ip), vehicle: saline
[7] = dose: 400.0 mg/kg/injection, schedule: Q01DX001 (ip), vehicle: saline
[8] = dose: 100.0 mg/kg/injection, schedule: Q04DX003 (ip), vehicle: Klucel (hydroxypropylcellulose) (HPC)
[9] = dose: 200.0 mg/kg/injection, schedule: Q04DX003 (ip), vehicle: Klucel (hydroxypropylcellulose) (HPC)
[10] = dose: 100.0 mg/kg/injection, schedule: Q01DX001 (ip), vehicle: Klucel (hydroxypropylcellulose) (HPC)
[11] = dose: 200.0 mg/kg/injection, schedule: Q01DX001 (ip), vehicle: Klucel (hydroxypropylcellulose) (HPC)
[12] = dose: 100.0 mg/kg/injection, schedule: Q04DX003 (ip), vehicle: saline
[13] = dose: 200.0 mg/kg/injection, schedule: Q04DX003 (ip), vehicle: saline

CCc1cccc(CC)c1NC(=O)/C=C/C(=O)O
T/C [1]: 93 % of control | T/C [2]: 100 % of control | T/C [3]: 96 % of control

NC(=S)NN=C1CCCCCCCCCC1
T/C [4]: 101 % of control | T/C [5]: 101 % of control | T/C [6]: 97 % of control | T/C [7]: 106 % of control

CCCCCCNP(=O)(Oc1ccccc1)Oc1ccccc1
T/C [8]: 97 % of control | T/C [9]: 97 % of control | T/C (dose: 400.0 mg/kg/injection, schedule: Q04DX003 (ip), vehicle: Klucel (hydroxypropylcellulose) (HPC)): 105 % of control

CC(=O)C12OC1(C)CC1C3CC=C4CC(O)CCC4(C)C3CCC12C (configuration not stated)
T/C (dose: 100.0 mg/kg/injection, schedule: Q01DX009 (sc), vehicle: steriod suspending solution): 100 % of control | T/C (dose: 100.0 mg/kg/injection, schedule: Q04DX003 (sc), vehicle: steriod suspending solution): 108 % of control | T/C (dose: 200.0 mg/kg/injection, schedule: Q01DX009 (sc), vehicle: steriod suspending solution): 109 % of control | T/C (dose: 200.0 mg/kg/injection, schedule: Q04DX003 (sc), vehicle: steriod suspending solution): 122 % of control | T/C (dose: 400.0 mg/kg/injection, schedule: Q01DX009 (sc), vehicle: steriod suspending solution): 98 % of control | T/C (dose: 400.0 mg/kg/injection, schedule: Q04DX003 (sc), vehicle: steriod suspending solution): 103 % of control

COc1ccc([I+]c2ccccc2C(=O)[O-])cc1OC
T/C [4]: 98 % of control | T/C [5]: 96 % of control | T/C [6]: 104 % of control | T/C [7]: 98 % of control

CCC(C(O)c1ccccc1)C(O)(C(F)(F)F)C(F)(F)F (configuration not stated)
T/C (dose: 75.0 mg/kg/injection, schedule: Q01DX009 (ip), vehicle: saline with Tween-80): 100 % of control | T/C (dose: 150.0 mg/kg/injection, schedule: Q01DX009 (ip), vehicle: saline with Tween-80): 106 % of control | T/C (dose: 300.0 mg/kg/injection, schedule: Q01DX009 (ip), vehicle: saline with Tween-80): 103 % of control

CS(=O)(=O)OCC(COS(C)(=O)=O)(COS(C)(=O)=O)COS(C)(=O)=O
T/C (dose: 100.0 mg/kg/injection, schedule: Q04DX002 (ip), vehicle: Klucel (hydroxypropylcellulose) (HPC)): 96 % of control | T/C (dose: 200.0 mg/kg/injection, schedule: Q04DX002 (ip), vehicle: Klucel (hydroxypropylcellulose) (HPC)): 92 % of control | T/C (dose: 400.0 mg/kg/injection, schedule: Q04DX002 (ip), vehicle: Klucel (hydroxypropylcellulose) (HPC)): 107 % of control

O=C(O)c1cc2c(cc1[N+](=O)[O-])OCO2
T/C [1]: 104 % of control | T/C [2]: 92 % of control | T/C [3]: 90 % of control

CC[n+]1ccc(-c2ccc(NC(=O)c3ccc(C(=O)Nc4ccc(-c5cc[n+](CC)cc5)cc4)cc3)cc2)cc1
T/C (dose: 2.5 mg/kg/injection, schedule: Q01DX015 (ip), vehicle: carboxymethylcellulose (CMC)): 224 % of control | T/C (dose: 3.7 mg/kg/injection, schedule: Q01DX001 (ip), vehicle: carboxymethylcellulose (CMC)): 118 % of control | T/C (dose: 5.0 mg/kg/injection, schedule: Q01DX015 (ip), vehicle: carboxymethylcellulose (CMC)): 157 % of control | T/C (dose: 7.5 mg/kg/injection, schedule: Q01DX001 (ip), vehicle: carboxymethylcellulose (CMC)): 176 % of control | T/C (dose: 10.0 mg/kg/injection, schedule: Q01DX015 (ip), vehicle: carboxymethylcellulose (CMC)): 123 % of control | T/C (dose: 15.0 mg/kg/injection, schedule: Q01DX001 (ip), vehicle: carboxymethylcellulose (CMC)): 163 % of control | T/C (dose: 20.0 mg/kg/injection, schedule: Q01DX015 (ip), vehicle: carboxymethylcellulose (CMC)): 94 % of control | T/C (dose: 30.0 mg/kg/injection, schedule: Q01DX001 (ip), vehicle: carboxymethylcellulose (CMC)): 177 % of control and 194 % of control | T/C (dose: 30.0 mg/kg/injection, schedule: Q01DX015 (ip), vehicle: carboxymethylcellulose (CMC)): 86 % of control | T/C (dose: 40.0 mg/kg/injection, schedule: Q01DX001 (ip), vehicle: carboxymethylcellulose (CMC)): 192 % of control and 296 % of control | T/C (dose: 60.0 mg/kg/injection, schedule: Q01DX001 (ip), vehicle: carboxymethylcellulose (CMC)): 211 % of control and 305 % of control and 307 % of control | T/C (dose: 90.0 mg/kg/injection, schedule: Q01DX001 (ip), vehicle: carboxymethylcellulose (CMC)): 157 % of control and 228 % of control | T/C (dose: 150.0 mg/kg/injection, schedule: Q01DX001 (ip), vehicle: carboxymethylcellulose (CMC)): 103 % of control | T/C (dose: 225.0 mg/kg/injection, schedule: Q01DX001 (ip), vehicle: carboxymethylcellulose (CMC)): 91 % of control

O=C1C(Br)=C(Br)C(=O)c2ccccc21
T/C [4]: 106 % of control | T/C [5]: 110 % of control

CC1CC[N-]CC1.CC1CC[N-]CC1.CS(C)=O.[Cl][Rh]([Cl])[Cl]
T/C (dose: 3.0 mg/kg/injection, schedule: Q01DX009 (ip), vehicle: saline with Tween-80): 98 % of control | T/C (dose: 6.0 mg/kg/injection, schedule: Q01DX009 (ip), vehicle: saline with Tween-80): 106 % of control | T/C (dose: 12.0 mg/kg/injection, schedule: Q01DX009 (ip), vehicle: saline with Tween-80): 109 % of control

Cc1nc(SCc2ccccc2)nc(N)c1CN
T/C (dose: 50.0 mg/kg/injection, schedule: Q04DX003 (ip), vehicle: Klucel (hydroxypropylcellulose) (HPC)): 113 % of control | T/C [10]: 93 % of control | T/C [8]: 100 % of control | T/C [11]: 98 % of control | T/C [9]: 104 % of control

CCN(C(C)(C)C(SSSC(c1ccc(Cl)cc1)C(C)(C)N(CC)S(C)(=O)=O)c1ccc(Cl)cc1)S(C)(=O)=O (configuration not stated)
T/C (dose: 100.0 mg/kg/injection, schedule: Q01DX009 (ip), vehicle: saline with Tween-80): 91 % of control

CC1CC(CC(=O)O)(C(=O)O)CC(C)O1 (configuration not stated)
T/C [10]: 105 % of control | T/C (dose: 100.0 mg/kg/injection, schedule: Q04DX003 (ip), vehicle: saline with Tween-80): 90 % of control | T/C [11]: 97 % of control | T/C (dose: 200.0 mg/kg/injection, schedule: Q04DX003 (ip), vehicle: saline with Tween-80): 101 % of control | T/C (dose: 400.0 mg/kg/injection, schedule: Q01DX001 (ip), vehicle: Klucel (hydroxypropylcellulose) (HPC)): 92 % of control | T/C (dose: 400.0 mg/kg/injection, schedule: Q04DX003 (ip), vehicle: saline with Tween-80): 95 % of control

CS(=O)(=O)c1cc(N2CC2)ncn1
T/C (dose: 4.0 mg/kg/injection, schedule: Q01DX015 (ip), vehicle: carboxymethylcellulose (CMC)): 96 % of control | T/C (dose: 8.0 mg/kg/injection, schedule: Q01DX015 (ip), vehicle: carboxymethylcellulose (CMC)): 102 % of control | T/C (dose: 16.0 mg/kg/injection, schedule: Q01DX015 (ip), vehicle: carboxymethylcellulose (CMC)): 108 % of control | T/C (dose: 32.0 mg/kg/injection, schedule: Q01DX015 (ip), vehicle: carboxymethylcellulose (CMC)): 113 % of control and 120 % of control | T/C (dose: 64.0 mg/kg/injection, schedule: Q01DX015 (ip), vehicle: carboxymethylcellulose (CMC)): 110 % of control

CCOC(C#Cc1ccccc1)OCC
T/C [12]: 105 % of control | T/C [13]: 114 % of control | T/C (dose: 400.0 mg/kg/injection, schedule: Q04DX003 (ip), vehicle: saline): 95 % of control

CC(CO)(C(=O)O)c1ccccc1 (configuration not stated)
T/C (dose: 55.0 mg/kg/injection, schedule: Q01DX Z (ip), vehicle: saline): 103 % of control | T/C (dose: 83.0 mg/kg/injection, schedule: Q01DX Z (ip), vehicle: saline): 96 % of control | T/C (dose: 125.0 mg/kg/injection, schedule: Q01DX Z (ip), vehicle: saline): 94 % of control

CS(C)=O.CS(C)=O.CS(C)=O.[Cl][Rh]([Cl])[Cl]
T/C (dose: 6.25 mg/kg/injection, schedule: Q01DX009 (ip), vehicle: saline): 106 % of control | T/C (dose: 12.5 mg/kg/injection, schedule: Q01DX009 (ip), vehicle: saline): 98 % of control | T/C (dose: 15.0 mg/kg/injection, schedule: Q01DX009 (ip), vehicle: saline): 107 % of control | T/C (dose: 40.0 mg/kg/injection, schedule: Q01DX009 (ip), vehicle: saline): 104 % of control | T/C [12]: 96 % of control | T/C [13]: 89 % of control

O=NN(CCCl)C(=O)Nc1ccc(Br)cc1
T/C (dose: 12.0 mg/kg/injection, schedule: Q01DX009 (ip), vehicle: carboxymethylcellulose (CMC)): 122 % of control | T/C (dose: 12.0 mg/kg/injection, schedule: Q01DX015 (ip), vehicle: carboxymethylcellulose (CMC)): 124 % of control | T/C (dose: 29.0 mg/kg/injection, schedule: Q01DX015 (ip), vehicle: carboxymethylcellulose (CMC)): 154 % of control | T/C (dose: 44.0 mg/kg/injection, schedule: Q01DX015 (ip), vehicle: carboxymethylcellulose (CMC)): 114 % of control and 89 % of control | T/C (dose: 100.0 mg/kg/injection, schedule: Q01DX001 (ip), vehicle: carboxymethylcellulose (CMC)): 157 % of control
